From US20040110802A1, “Antibacterial benzoic acid derivatives” (priority 2002, published 2004)
Converted amounts (≈) assume the structure as drawn.

Each compound was assayed on SAUR 9218 (assay: MIC Test Method, standard agar dilution). Settings: agar dilution, Mueller Hinton agar, incubated overnight at 35° C.; lowest concentration that inhibits visible growth; read-out: SAUR 9218 MIC.
Format: cell-based
Protocol: The in vitro MiCs of test compounds were determined by a standard agar dilution method. A stock drug solution of each analog was prepared in the preferred solvent, usually DMSO:H2O (1:3). Serial 2-fold dilutions of each sample are made using 1.0 ml aliquots of sterile distil]ed water. To each 1.0 ml aliquot of drug was added 9 ml of molten Mueller Hinton agar medium. The drug-supplemented agar was mixed, poured into 15×100 mm petri dishes, and allowed to solidify and dry prior to inoculation.
Vials of each of the test organisms are maintained frozen in the vapor phase of a liquid nitrogen freezer. Test cultures are grown overnight at 35° C. on the medium appropriate for the organism. Colonies are harvested with a sterile swab, and cell suspensions are prepared in Trypticase Soy broth (TSB) to equal the turbidity of a 0.5 McFamland standard. A 1:20 dilution of each suspension was made in TSB. The plates containing the drug supplemented agar are inoculated with a 0.001 ml drop of the cell suspension using a Steers replicator, yielding approximately 10^4 to 10^5 cells per spot. The plates are incubated overnight at 35° C.
Following incubation the Minimum Inhibitory Concentration (MIC μg/ml), the lowest concentration of drug that inhibits visible growth of the organism, was read and recorded.

SMILES | MIC
N#Cc1cccc(-c2cnc(C(=O)Nc3ccc(C#N)cc3C(=O)O)o2)c1 | 2 µg/mL (≈ 5.58 µM)
Cc1sc(C(=O)Nc2ccc(C#N)cc2C(=O)O)cc1S(=O)(=O)N(C)CC(O)c1ccccc1 (stereo not shown) | 2 µg/mL (≈ 4 µM)
Cc1sc(C(=O)Nc2ccc(C#N)cc2C(=O)O)cc1S(=O)(=O)N1CCCCCCC1 | 8 µg/mL (≈ 17.3 µM)
Cn1c(C(=O)Nc2ccc(I)cc2C(=O)O)cc2ccccc21 | 4 µg/mL (≈ 9.52 µM)
CCOc1nc(SCc2ccccc2)ncc1C(=O)Nc1ccc(C#N)cc1C(=O)O | 8 µg/mL (≈ 18.4 µM)
O=C(Nc1ccc(I)cc1C(=O)O)c1cc(-c2ccccc2)on1 | 1 µg/mL (≈ 2.3 µM)
N#Cc1ccc(NC(=O)c2cc3cccc(NC(=O)c4cccs4)c3[nH]2)c(C(=O)O)c1 | 0.25 µg/mL (≈ 0.581 µM)
O=C(Nc1ccc(O)cc1C(=O)O)c1cc(-c2ccccc2-c2ccccc2)on1 | 0.125 µg/mL (≈ 0.312 µM)
COc1ccc(-c2cnc(C(=O)Nc3ccc(C#N)cc3C(=O)O)cn2)c(OC)c1OC | > 128 µg/mL
N#Cc1ccc(NC(=O)c2noc3cc(-c4ccccc4)ccc23)c(C(=O)O)c1 | 0.125 µg/mL (≈ 0.326 µM)
CCCCNCC(O)COc1cccc2cc(C(=O)Nc3ccc(C#N)cc3C(=O)O)n(C)c12.Cl (stereo not shown) | 0.5 µg/mL
Cn1c(C(=O)Nc2ccc(C#N)cc2C(=O)O)cc2cccc(NC(=O)Cc3ccncc3)c21.O=C(O)C(F)(F)F | 1 µg/mL
O=C(O)c1cc(Br)ccc1NC(=O)c1nc(N2CCOCC2)ncc1Cl | > 128 µg/mL
N#Cc1ccc(NC(=O)c2cc3cccc(NC(=O)C4CCC4)c3[nH]2)c(C(=O)O)c1 | 0.5 µg/mL (≈ 1.24 µM)
CCOC(=O)CCSc1ccc(C(=O)Nc2ccc(C#N)cc2C(=O)O)cn1 | 1 µg/mL (≈ 2.5 µM)
CCC(CC)Oc1ccccc1-c1cc(C(=O)Nc2ccc(C#N)cc2C(=O)O)no1 | 4 µg/mL (≈ 9.54 µM)
Cc1sc(C(=O)Nc2ccc(C#N)cc2C(=O)O)cc1S(=O)(=O)N1CCC(C)CC1 | 8 µg/mL (≈ 17.9 µM)
COc1cnc(C(=O)Nc2ccc(Br)cc2C(=O)O)cn1 | 4 µg/mL (≈ 11.4 µM)
N#Cc1ccc(NC(=O)c2ccc3ccccc3n2)c(C(=O)O)c1 | 8 µg/mL (≈ 25.2 µM)
COc1ccc(-c2cnc(C(=O)Nc3ccc(Br)cc3C(=O)O)o2)cc1 | 2 µg/mL (≈ 4.79 µM)
N#Cc1ccc(NC(=O)c2ccc(-c3ccccc3C(F)(F)F)nn2)c(C(=O)O)c1 | 16 µg/mL (≈ 38.8 µM)
Cc1sc(C(=O)Nc2ccc(C#N)cc2C(=O)O)cc1S(=O)(=O)N1CCN(c2cccc(C(F)(F)F)c2)CC1 | 32 µg/mL (≈ 55.3 µM)
COCC(C)Oc1cccc2cc(C(=O)Nc3ccc(C#N)cc3C(=O)O)n(C)c12 (stereo not shown) | 0.125 µg/mL (≈ 0.307 µM)

SMILES | MIC
CN(c1ccc(Cl)cc1)S(=O)(=O)c1csc(C(=O)Nc2ccc(Br)cc2C(=O)O)c1 | 8 µg/mL (≈ 15.1 µM)
N#Cc1ccc(NC(=O)c2cc(CN3CCOCC3)on2)c(C(=O)O)c1 | 16 µg/mL (≈ 44.9 µM)
Cc1noc(C)c1-c1ccc2cc(C(=O)Nc3ccc(C#N)cc3C(=O)O)n(C)c2c1 | 1 µg/mL (≈ 2.41 µM)
Cc1c(S(=O)(=O)Nc2ccc3c(c2)OCCO3)csc1C(=O)Nc1ccc(Br)cc1C(=O)O | 16 µg/mL (≈ 28.9 µM)
Cc1ccc(-c2cccc3cc(C(=O)Nc4ccc(C#N)cc4C(=O)O)n(C)c23)s1 | 0.5 µg/mL (≈ 1.2 µM)
N#Cc1ccc(NC(=O)c2cc(CCCc3ccccc3)on2)c(C(=O)O)c1 | 0.125 µg/mL (≈ 0.333 µM)
COCC(=O)Nc1cccc2cc(C(=O)Nc3ccc(C#N)cc3C(=O)O)[nH]c12 | 4 µg/mL (≈ 10.2 µM)
O=C(O)c1cc(Br)ccc1NC(=O)c1cc(Cl)cc[n+]1[O-] | > 128 µg/mL
N#Cc1ccc(NC(=O)c2cc3cccc(NC(=O)COc4ccc5ccccc5c4)c3[nH]2)c(C(=O)O)c1 | 0.25 µg/mL (≈ 0.496 µM)
N#Cc1ccc(NC(=O)c2cc3cccc(NC(=O)Cc4ccc(C(F)(F)F)cc4)c3[nH]2)c(C(=O)O)c1 | 0.5 µg/mL (≈ 0.987 µM)
O=C(Nc1ccc(Br)cc1C(=O)O)c1ccc(SC2CCOCC2)nc1 | 1 µg/mL (≈ 2.29 µM)
N#Cc1ccc(NC(=O)c2noc3c2CCCC3)c(C(=O)O)c1 | 0.5 µg/mL (≈ 1.61 µM)
N#Cc1ccc(NC(=O)c2noc3ccc(NC(=O)c4ccccc4)cc23)c(C(=O)O)c1 | 1 µg/mL (≈ 2.35 µM)
CC(C)Cn1c(C(=O)Nc2ccc(Br)cc2C(=O)O)cc2ccccc21 | 2 µg/mL (≈ 4.82 µM)
N#Cc1ccc(NC(=O)c2cc3cccc4c3n2CCC4Oc2ccccc2)c(C(=O)O)c1 (stereo not shown) | 0.25 µg/mL (≈ 0.571 µM)
CCCn1c(C(=O)Nc2ccc(Cl)cc2C(=O)O)cc2ccccc21 | 4 µg/mL (≈ 11.2 µM)
N#Cc1ccc(NC(=O)c2cc3cccc4c3n2CC/C4=N\Oc2ccccc2)c(C(=O)O)c1 | 2 µg/mL (≈ 4.44 µM)
N#Cc1ccc(NC(=O)c2cc(CNCc3ccccc3)on2)c(C(=O)O)c1 | 2 µg/mL (≈ 5.31 µM)
CN(C)c1ccc(CNS(=O)(=O)c2cc(C(=O)Nc3ccc(Br)cc3C(=O)O)cs2)cc1 | 64 µg/mL (≈ 119 µM)
CC(C)CSc1cnc(C(=O)Nc2ccc(C#N)cc2C(=O)O)cn1 | 0.25 µg/mL (≈ 0.701 µM)
CS(=O)(=O)N(c1ccc2onc(C(=O)Nc3ccc(C#N)cc3C(=O)O)c2c1)S(C)(=O)=O | 0.125 µg/mL (≈ 0.261 µM)
Cn1c(C(=O)Nc2ccc(C#N)cc2C(=O)O)cc2ccccc21 | 0.25 µg/mL (≈ 0.783 µM)
CN(C)S(=O)(=O)c1ccc2onc(C(=O)Nc3ccc(Br)cc3C(=O)O)c2c1 | 0.25 µg/mL (≈ 0.534 µM)

SMILES | MIC
CCOc1ccccc1-c1cc(C(=O)Nc2ccc(C#N)cc2C(=O)O)no1 | 0.125 µg/mL (≈ 0.331 µM)
N#Cc1ccc(NC(=O)c2cncc(-c3cccc4cccnc34)c2)c(C(=O)O)c1 | 32 µg/mL (≈ 81.1 µM)
COc1ccc(CNc2cnc(C(=O)Nc3ccc(N)cc3C(=O)O)cn2)cc1 | 0.25 µg/mL (≈ 0.635 µM)
Cn1cccc1-c1cncc(C(=O)Nc2ccc(C#N)cc2C(=O)O)c1 | 8 µg/mL (≈ 23.1 µM)
Cn1c(C(=O)Nc2ccc(C#N)cc2C(=O)O)cc2cccc(OCC3CCC3)c21 | 0.125 µg/mL (≈ 0.31 µM)
COC(Cc1cnc(C(=O)Nc2ccc(Br)cc2C(=O)O)cn1)[C@H]1COC2(CCCCC2)O1 (stereo partly shown) | 128 µg/mL (≈ 246 µM)
N#Cc1ccc(NC(=O)c2noc3cc(-c4ccccc4C(F)(F)F)ccc23)c(C(=O)O)c1 | 0.125 µg/mL (≈ 0.277 µM)
N#Cc1ccc(NC(=O)c2cc3cccc(NC(=O)Cc4csc5ccccc45)c3[nH]2)c(C(=O)O)c1 | 0.25 µg/mL (≈ 0.506 µM)
O=C(Nc1ccc(Br)cc1C(=O)O)c1cnc2ccccc2n1 | 8 µg/mL (≈ 21.5 µM)
CN(c1ccc(Cl)cc1)S(=O)(=O)c1cncc(C(=O)Nc2ccc(Br)cc2C(=O)O)c1 | 1 µg/mL (≈ 1.91 µM)
N#Cc1ccc(NC(=O)c2cc(CNCc3ccncc3)on2)c(C(=O)O)c1.O=C(O)C(F)(F)F | 8 µg/mL
Cc1sc(C(=O)Nc2ccc(Br)cc2C(=O)O)cc1S(=O)(=O)Nc1ccc2c(c1)OCCO2 | 8 µg/mL (≈ 14.5 µM)
N#Cc1ccc(NC(=O)c2cc3cc(-c4ccccc4)oc3cn2)c(C(=O)O)c1 | 8 µg/mL (≈ 20.9 µM)
O=C(Nc1ccc(Br)cc1C(=O)O)c1cc(-c2ccccc2)n[nH]1 | > 128 µg/mL
N#Cc1ccc(NC(=O)c2noc3cc(Br)ccc23)c(C(=O)O)c1 | 0.5 µg/mL (≈ 1.29 µM)
CC(C)CC(=O)Nc1cccc2cc(C(=O)Nc3ccc(C#N)cc3C(=O)O)[nH]c12 | 2 µg/mL (≈ 4.95 µM)
O=C(Nc1ccc(Cl)cc1C(=O)O)c1cc(-c2ccccc2)on1 [drawing 1106] | 1 µg/mL (≈ 2.92 µM)
CC(=O)Nc1cccc2cc(C(=O)Nc3ccc(C#N)cc3C(=O)O)[nH]c12 | 2 µg/mL (≈ 5.52 µM)
CCCCOc1ccc(C(=O)Nc2cccc3cc(C(=O)Nc4ccc(C#N)cc4C(=O)O)[nH]c23)cc1 | 2 µg/mL (≈ 4.03 µM)
Cc1sc(C(=O)Nc2ccc(C#N)cc2C(=O)O)cc1S(=O)(=O)N(CC(C)C)CC(C)C | 32 µg/mL (≈ 67 µM)
O=C(Nc1ccc(Br)cc1C(=O)O)c1cc(-c2ccc(C(F)(F)F)cc2)on1 | 1 µg/mL (≈ 2.2 µM)
Cc1cc(CC(=O)Nc2cccc3cc(C(=O)Nc4ccc(C#N)cc4C(=O)O)[nH]c23)on1 | 2 µg/mL (≈ 4.51 µM)
N#Cc1ccc(NC(=O)c2ccc(SCC3CC3)nc2)c(C(=O)O)c1 | 0.5 µg/mL (≈ 1.41 µM)

SMILES | MIC
COc1ccc(OC)c(NC(=O)Nc2ccc3cc(C(=O)Nc4ccc(C#N)cc4C(=O)O)n(C)c3c2)c1 | 2 µg/mL (≈ 3.89 µM)
O=C(Nc1ccc(Br)cc1C(=O)O)c1coc(CC[C@H](O)CO)n1 | > 128 µg/mL
CCOCC(O)COc1cccc2cc(C(=O)Nc3ccc(C#N)cc3C(=O)O)n(C)c12 (stereo not shown) | 0.25 µg/mL (≈ 0.571 µM)
N#Cc1ccc(NC(=O)c2cccc(Br)n2)c(C(=O)O)c1 | 32 µg/mL (≈ 92.4 µM)
N#Cc1ccc(NC(=O)c2cnc(SCc3ccccc3)cn2)c(C(=O)O)c1 | 0.125 µg/mL (≈ 0.32 µM)
N#Cc1ccc(NC(=O)c2ccc(SCc3ncon3)nc2)c(C(=O)O)c1 | 1 µg/mL (≈ 2.62 µM)
Cc1nn(-c2ccccc2)nc1C(=O)Nc1ccc(C#N)cc1C(=O)O | 4 µg/mL (≈ 11.5 µM)
N#Cc1ccc(NC(=O)c2cc(CNC(=N)N)on2)c(C(=O)O)c1 | 128 µg/mL (≈ 390 µM)
CC(=O)OC(C(=O)Nc1cccc2cc(C(=O)Nc3ccc(C#N)cc3C(=O)O)[nH]c12)c1ccccc1 (stereo not shown) | 1 µg/mL (≈ 2.01 µM)
Cn1c(C(=O)Nc2ccc(C#N)cc2C(=O)O)cc2cccc(NS(=O)(=O)CS(C)(=O)=O)c21 | 2 µg/mL (≈ 4.08 µM)
N#Cc1ccc(NC(=O)c2cc(-c3ccccc3OCC3CCCCO3)on2)c(C(=O)O)c1 (stereo not shown) | 2 µg/mL (≈ 4.47 µM)
Cc1c(S(=O)(=O)Nc2ccc(N3CCOCC3)cc2)csc1C(=O)Nc1ccc(Br)cc1C(=O)O | 64 µg/mL (≈ 110 µM)
CC1(C)OCC(/C=C/c2cnc(C(=O)Nc3ccc(Br)cc3C(=O)O)cn2)O1 (stereo not shown) | 32 µg/mL (≈ 71.4 µM)
CC(=O)Nc1cccc(-c2ccc3c(C(=O)Nc4ccc(C#N)cc4C(=O)O)noc3c2)c1 | 0.015 µg/mL (≈ 0.0341 µM)
N#Cc1ccc(NC(=O)c2nc3ccccc3s2)c(C(=O)O)c1 | 0.25 µg/mL (≈ 0.773 µM)
O=C(O)c1cc(Br)ccc1NC(=O)c1noc2ccc(S(=O)(=O)N3CCCC3)cc12 | 0.25 µg/mL (≈ 0.506 µM)
N#Cc1ccc(NC(=O)c2cncc(-c3ccc(C(F)(F)F)cc3)c2)c(C(=O)O)c1 | > 128 µg/mL
Cn1c(C(=O)Nc2ccc(C#N)cc2C(=O)O)cc2cccc(NC(=O)N3CCOCC3)c21 | 8 µg/mL (≈ 17.9 µM)
Cc1sc(C(=O)Nc2ccc(C#N)cc2C(=O)O)cc1S(=O)(=O)N1CCc2ccccc2C1 | 4 µg/mL (≈ 8.31 µM)
Cc1cnc(C(=O)Nc2ccc(Br)cc2C(=O)O)cn1 | 128 µg/mL (≈ 381 µM)
N#Cc1ccc(NC(=O)c2cc3cccc(NS(=O)(=O)Cc4ccccc4)c3[nH]2)c(C(=O)O)c1 | 0.125 µg/mL (≈ 0.263 µM)

Same assay, conditions: read-out: SAUR 9218 MIC

SMILES | MIC
N#Cc1ccc(NC(=O)c2cc3cccc(NC(=O)CF)c3[nH]2)c(C(=O)O)c1 | 2 µg/mL (≈ 5.26 µM)
